Assay results: publication PMC4008261, “Rewiring of regenerated axons by combining treadmill training with semaphorin3A inhibition” (Molecular Brain, 2014)

Legend:
[1] = system: Adhesion, ICAM-1-Mediated; assay: Pharmacological profile: cell adhesion; assay type: cell-based
Source text: (§1) Table 1 Pharmacological profile of SM-345431 (part 1) | column: IC50 (μm)

[2] = system: Adhesion, VCAM-1-Mediated; assay: Pharmacological profile: cell adhesion; assay type: cell-based
Source text: as §1

[3] = system: Adhesion, fibronectin-mediated; assay: Pharmacological profile: cell adhesion; assay type: cell-based
Source text: as §1

[4] = system: Cell proliferation, B-Cell+LPS; assay: Pharmacological profile: cell proliferation; assay type: cell-based
Source text: as §1

[5] = system: Cell proliferation, T-Cell+Con A; assay: Pharmacological profile: cell proliferation; assay type: cell-based
Source text: as §1

SCT adult rats = assay: Remyelination after SCT (MBP/GAP43 immunostaining, electron microscopy); assay type: in vivo, rat
Protocol: Rats were randomly divided into the following three experimental groups: 1) untrained + placebo, 2) untrained + SM-345431 and 3) trained + SM-345431. SCT was performed, and SM-345431 or placebo was administered at the lesion site via the newly developed DDS, which is described in detail below. Starting 1 week post-injury, treadmill training commenced with a BSS. Kinematic tests were performed monthly for 3 months after SCT using a rodent robotic device (Rodent robot 3000, Robomedica Inc.) that primarily assessed the performance of plantar stepping on a treadmill. Treadmill training was continued throughout the experimental period.
A total of 53 adult female Sprague-Dawley rats (200-250 g, 10-12 weeks old) were used in this study (3 rats died during the experimental period and were excluded from the statistical analysis). All procedures were approved by the experimental animal care committee of Keio University, School of Medicine and Murayama Medical Center (approval #12-8). All rats were anesthetized with an intraperitoneal injection of ketamine (100 mg/kg)/xylazine (10 mg/kg). The spinal cord at the level of the T10 lamina was exposed by T10 laminectomy, and the dorsal dura mater was opened. […] Kinematic data were recorded using similar procedures prior to re-transection surgery (on the same day) and on the day following re-transection surgery. […]

## CC(=O)c1cc2c(=O)c3c(C(=O)O)c(O)c(O)cc3oc2c(C(C)=O)c1-c1coc2cc(O)c(O)c(C(=O)O)c2c1=O [SM-345431, Vinaxanthone]
[1]
  IC50: > 10 µM
[2]
  IC50: > 10 µM
[3]
  IC50: > 10 µM
[4]
  IC50: > 10 µM
[5]
  IC50: > 10 µM
SCT adult rats; SM-345431 alone, 12 weeks post-injury
  remyelination of axons (myelinated GAP43-positive axons at the lesion site): significantly enhanced the remyelination of axons
SCT adult rats; SM-345431 plus treadmill training, compared with SM-345431 alone
  remyelination of axons (myelinated GAP43-positive axons at the lesion site): additional remyelination was not observed
